The values below come from patent publication US11746328B2, “Methods and systems for functional maturation of iPSC and ESC derived cardiomyocytes” (Agilent Technologies, Inc., priority 2017, dated 2023).

The subject of assay [1] is iPSC-derived cardiomyocytes. Nature of the assay: Inotropic compound screening on functionally matured iPSC-derived cardiomyocytes, xCELLigence RTCA CardioECR (Example VI, FIG. 7, FIG. 8). Format: cell-based. The note with it: for beating rate: FIG. 7B. The method, then: Cell monolayer preparation. The iPSC-derived cardiomyocytes were seeded at the optimal seeding density in the wells of E-plate CardioECR 48, which were pre-coated with substrate. The attachment, growth and beating activity of the cells were recorded after cell seeding in real-time using xCELLigence RTCA CardioECR station, which was placed in a 37° C. tissue culture incubator. Medium change was performed every other day.
Induction of functionally mature iPSC-derived cardiomyocytes. The electrical pacing was initiated and applied to the cell monolayer after a stable and robust beating activity of iPSC-derived cardiomyocytes is observed using xCELLigence RTCA cardioECR system. The iPSC-derived cardiomyocytes were then electrically paced at 1 Hz, 1.5 Hz and 2 Hz for 1 week respectively using xCELLigence RTCA CardioECR system. The pulse intensity and pulse duration was optimized before each pacing frequency and continuously applied to the cells. The cells were confirmed to beat at the same frequency as the pacing frequency under the pacing condition. Medium change was performed every day during chronic pacing procedure.
Inotropic compound screening. After completion of functional maturation of cardiomyocytes over the course of ramping up pacing process for 3 weeks, the inotropic compound screening was conducted. The old media was replaced with 90 μL of fresh pre-warmed media the night before compound addition. The cells will were continuously paced for an additional 12 hours at 2 Hz using the CardioECR system. The electrical pacing was terminated 6 hours prior to compound application to ensure that cells generated stable beating rate and beating amplitude for treatment. The cell beating activity is monitored and recorded in real-time on the CardioECR system.
The effective concentration ranges for the test substances were determined. The compound solution is prepared as follows. The compounds are dissolved in the appropriate solvent. If DMSO is used as the solvent, dissolve the compound in a high stock concentration if possible (ideally more than 1000-fold of the highest test concentration) and store at −20° C. Serial dilutions of compounds are prepared 1000× concentrated in appropriate solvent (DMSO or H2O). Diluted compounds are transferred to the wells of a V-bottom microtiter plate for further dilution in culture medium (10× concentrated).
The baseline of beating activity is recorded for 20 seconds every 5 minutes up to 30 minutes immediately prior to compound addition on the CardioECR system. 10 μL of 10× compound solution is added to the wells of CardioECR plate using multichannel pipette. The cell response to the compound is recorded for 20 seconds every 2 minutes immediately after compound exposure using CardioECR system. The cell beating activity, including beating rate and beating amplitude, is evaluated at 30 minutes post compound addition.

The next assay deals with immature cardiomyocytes. The settings on record: T3 treatment of immature cardiomyocytes; cited from earlier work.
A further assay deals with iPSC cardiomyocytes. Nature of the assay: Inotropic compound test on iPSC cardiomyocytes, xCELLigence RTCA CardioECR (Example V). Format: cell-based. The note with it: 30 minutes post compound addition; for beating rate: FIG. 6B; for beating amplitude (positive inotropic effect): FIG. 6A. Here is the method:
The functional maturation of iPSC cardiomyocytes from Example III was tested using inotropic compounds. Results are shown in FIG. 6A-B. In particular, iPSC cardiomyocytes were seeded in the wells of the CardioECR Plate (E-Plate CardioECR 48) for approximately 7 days until they formed a synchronous, stable beating monolayer. The cells were then electrically paced at 1 Hz, 1.5 Hz and 2 Hz for 1 week respectively (week 1: 1 Hz pacing; week 2: 1.5 Hz pacing; week 3: 2 Hz pacing). After pausing the 2 Hz pacing, cell media was replaced with 90 μL of fresh pre-warmed media the night before compound addition. The cells were then continuously paced for additional 8 hours at 2 Hz. The electrical pacing was terminated 5 hours prior to compound addition to ensure that cells would generate a stable beating rate and beating amplitude for treatment. The baseline beating activity was recorded for 20 seconds every 5 minutes up to 30 minutes immediately prior to compound addition. 10 μL of 10× compound solution was then added to the wells of CardioECR plate using a multichannel pipette. The cell response to the compound was recorded for 20 seconds every 2 minutes immediately after compound exposure using CardioECR system. The cell beating activity, including beating rate and beating amplitude, was evaluated at 30 minutes post compound addition.

The mark [2] stands for this setting: FIG. 8 panel, functional matured iCell cardiomyocytes after pacing, representative concentrations.
Where [3] appears, read: spontaneous beating cardiomyocytes.

`C[C@H]1O[C@@H](O[C@H]2[C@@H](O)C[C@H](O[C@H]3[C@@H](O)C[C@H](O[C@H]4CC[C@@]5(C)[C@H](CC[C@@H]6[C@@H]5C[C@@H](O)[C@]5(C)[C@@H](C7=CC(=O)OC7)CC[C@]65O)C4)O[C@@H]3C)O[C@@H]2C)C[C@H](O)[C@@H]1O` [digoxin]: in assay [1] (setting [2]), the inotropic effect result was “positive inotropic effect”.
For `COC(=O)C1=C(C)NC(C)=C([N+](=O)[O-])C1c1ccccc1C(F)(F)F` (stereo not shown) [bayK], the inotropic effect result in assay [1] (setting [2]) is reported as “positive inotropic effect”.
Turning to `Cc1[nH]c(=O)c(C#N)cc1-c1ccncc1` [milrinone], the beating rate result is “slightly increased” in assay [1] (chronically paced cardiomyocytes, 30 minutes post compound addition) and “slightly increased” in assay [1] (spontaneous beating cardiomyocytes, 30 minutes post compound addition). Also, the beating amplitude result in assay [1] (electrically paced cardiomyocytes, 30 minutes post compound addition, FIG. 7A) is “significantly increased”.
As to `N[C@@H](Cc1cc(I)c(Oc2ccc(O)c(I)c2)c(I)c1)C(=O)O` [T3, Tri-iodo-L-thryonine], in the assay with immature cardiomyocytes, the calcium handling properties entry is on record as “enhanced”, the cardiomyocyte size result is given as “increased”, the contractile force generation entry was “increased” and the “maximal mitochondrial respiration capacity” value is on record as “increased”. Further, in the assay on immature cardiomyocytes, the proliferation entry was “decreased” and the sarcomere length result is “increased”.
With `CC(C)NCC(O)c1ccc(O)c(O)c1` (stereo not shown) [isoproterenol], the beating rate entry with iPSC cardiomyocytes (chronically paced cardiomyocytes (1, 1.5, 2 Hz, 1 week each)) is on record as “increase”; with iPSC cardiomyocytes (setting [3]), “increase”. Besides, the “beating amplitude (positive inotropic effect)” value with iPSC cardiomyocytes (chronically paced cardiomyocytes) is “increase”; with iPSC cardiomyocytes (setting [3]) it was “only observed in paced cells”. Also, the chronotropic effect entry in assay [1] (setting [2]) is recorded as “positive chronotropic effect”.
